Results published in patent publication US11813239B2, “Compositions and methods for improving cardiac structure and/or function” (Wisconsin Alumni Research Foundation, priority 2020, dated 2023).

Legend:
[1] = test system: postnatal (P7) mouse heart following myocardial infarction; experiment: Echocardiography after myocardial infarction in P7 juvenile mice; settings: sham at P7 (SH, n = 6), dimethyl malonate 100 mg/kg daily for 2 weeks from birth, echo at day 21 (P7D21), mean ± SE
Experimental: (§1) Neonatal mice at postnatal day 1 (P1) or day 7 (P7) were used for myocardial infarction (MI) surgery. Neonatal mice were subjected to MI surgeries as previously described. Briefly, neonates were anesthetized by hypothermia on ice. Lateral thoracotomy at the fourth intercostal space was performed by blunt dissection of the intercostal muscles after skin incision. A C-1 tapered needle attached to a 6-0 prolene suture (Ethicon Inc., Bridgewater, N.J.) was passed through the mid-ventricle below the left anterior descending coronary artery (LAD) and tied off to induce MI. The prolene suture was used to suture the ribs together and seal the chest wall incisions, and the skin was closed using adhesive glue (3M). The mice then were warmed on a heating pad until recovery. Sham-operated mice underwent the same procedure including hypothermic anesthesia, but not LAD ligation.
(§2) Neonatal mice were weighed and injected daily with either saline, 100 mg/kg dimethyl succinate (Sigma), 100 mg/kg dimethyl malonate (Sigma), or 100 μg/kg Atpenin A5 (Enzo Life Sciences). Dimethyl succinate and dimethyl malonate were dissolved in saline. Stock solution of Atpenin A5 at 0.1 mg/ml was initially prepared by dissolving in DMSO (Sigma) and then further diluted with saline before injection. Saline was used as a vehicle control for all experiments.
(§3) Transthoracic echocardiography was performed by using a Visual Sonics 770 ultrasonograph with a 25-MHz transducer (Visual Sonics, Toronto) as described previously^19. Mice were lightly anesthetized with 1% isoflurane and maintained on a heated platform. Two-dimensionally guided M-mode images from a parasternal long axis (PLAX) of the left ventricle (LV) were acquired at the tip of the papillary muscles. Wall thickness and chamber diameters were measured in both diastole and systole. Fractional shortening was calculated as (LVDd−LVDs)/LVDd×100, where LVDd is LV diameter in diastole and LVDs is LV diameter in systole. Ejection fraction was calculated as [(7.0/(2.4+LVDd)(LVDd)^3−(7.0/(2.4+LVDs)(LVDs)^3/(7.0/(2.4+LVDd)(LVDd)^3×100 and LV mass was calculated by using the formula [1.05×((Posterior Walldiastole+Anterior Walldiastole+LVDd)^3−(LVDd)^3)]. All parameters were measured over at least three consecutive cycles.
We injected dimethyl malonate (100 mg/kg, daily) in neonatal mice directly after birth for 2 weeks with an MI performed once the mice reached P7. We then analyzed the hearts following injury to determine whether malonate results in prolongation of the neonatal regenerative window (FIG. 10A).

[2] = test system: adult mouse heart following myocardial infarction; experiment: Echocardiography after adult MI, malonate treatment starting 1-week post-MI; settings: for % EF (Ejection Fraction) / % FS (Fractional Shortening) / LV Mass (Left Ventricular Mass, Anatomical Weight) / LV Vol; d (Left Ventricular Volume; diastole) / LV Vol; s (Left Ventricular Volume; systole) / LVAWD (Left Ventricle Anterior Wall Thickness Diastole) / LVAWS (Left Ventricle Anterior Wall Thickness Systole) / LVIDD (Left Ventricle Internal Diameter Diastole) / LVIDS (Left Ventricle Internal Diameter Systole) / LVPWD (Left Ventricle Posterior Wall Thickness Diastole) / LVPWS (Left Ventricle Posterior Wall Thickness Systole): adult mice, mean ± SE
Text: (§4) Adult male mice (8-week-old) were subjected to MI by ligation of the proximal aspect of the LAD coronary artery. In brief, mice were anaesthetized using 3% isoflurane, then mice were intubated with PE50 tubing and placed on a mouse ventilator at 120-130 breaths per minute with a stroke volume of 150 microliters and maintained on 2% isoflurane. A left lateral incision through the fourth intercostal space was made to expose the heart. After visualizing the left coronary artery, 7-0 suture was placed through the myocardium in the anterolateral wall and secured as previously describer^17,18. Coronary artery entrapment was confirmed by observing blanching of the distal circulation (ventricular apex). ECG was used to confirm MI by noting ST segment changes. The lungs were over inflated, and the ribs and muscle layers were closed by absorbable sutures. The skin is closed by additional suturing using 6-0 nylon. The mouse was recovered from the anesthesia and extubated.
Saline was used as a vehicle control for all experiments. […] Adult mice were injected intraperitoneally daily with either saline or 100 mg/kg dimethyl malonate post-MI for 2 or 4 weeks.
as §3
To determine whether SDH inhibitors can promote a regenerative response following the establishment of infarction, we performed MI in 8-week-old mice and started malonate treatment at 1-week post-MI (FIG. 20A). […] Mice were then randomized and treated with saline or malonate for a period of 4 weeks, and hearts were harvested at 6 weeks post-MI (FIG. 20A).

[3] = test system: adult mouse heart following myocardial infarction; experiment: Trichrome staining after adult MI, malonate treatment starting 1-week post-MI; settings: malonate for 4 weeks starting 1-week post-MI, 6 weeks post-MI
Text: as §4
Saline was used as a vehicle control for all experiments. […]
Hearts were harvested and fixed in 4% paraformaldehyde (PFA) in PBS solution overnight at 4° C., processed for paraffin embedding, and sectioned in intervals. […] Scar size measurements were quantified from at least 3 sections of the heart from ligature to apex. ImageJ was used to quantify the fibrotic scar, and the average scar area for each heart was plotted. […]

cardiomyocytes = experiment: Immunostaining (pH3, Aurora B), WGA and trichrome staining after MI in P7 mice; settings: MI at P7, dimethyl malonate 100 mg/kg daily for 2 weeks from birth, 21 days post-MI
Text: We then analyzed the hearts following injury to determine whether malonate results in prolongation of the neonatal regenerative window (FIG. 5A). To examine whether malonate stimulates cardiomyocyte proliferation, we performed MI in 7-day-old mice and analyzed their hearts at 7 days post-MI by immunostaining for markers of proliferation.
as §1, §2
Hearts were harvested and fixed in 4% paraformaldehyde (PFA) in PBS solution overnight at 4° C., processed for paraffin embedding, and sectioned in intervals. Masson's trichrome staining was performed according to the manufacture's protocol (Newcomer Supply, Middleton, WI). Scar size measurements were quantified from at least 3 sections of the heart from ligature to apex. ImageJ was used to quantify the fibrotic scar, and the average scar area for each heart was plotted.
We injected dimethyl malonate (100 mg/kg, daily) in neonatal mice directly after birth for 2 weeks with an MI performed once the mice reached P7.

[4] = MI, 2 WPMI, dimethyl malonate 100 mg/kg daily for 4 weeks starting 1 WPMI
[5] = MI, 3 WPMI, dimethyl malonate 100 mg/kg daily for 4 weeks starting 1 WPMI
[6] = MI, 4 WPMI, dimethyl malonate 100 mg/kg daily for 4 weeks starting 1 WPMI
[7] = MI, 6 WPMI, dimethyl malonate 100 mg/kg daily for 4 weeks starting 1 WPMI
[8] = malonate group, MI, 1 WPMI (before start of dosing)
[9] = malonate group, Pre (before MI and dosing)

SMILES: COC(=O)CC(=O)OC [Malonate, dimethyl malonate]
- LVAWS (Left Ventricle Anterior Wall Thickness Systole) [1]: 0.820 ± 0.033 mm
- LVIDD (Left Ventricle Internal Diameter Diastole) [1]: 3.240 ± 0.185 mm
- LVIDS (Left Ventricle Internal Diameter Systole) [1]: 2.058 ± 0.204 mm
- LVPWD (Left Ventricle Posterior Wall Thickness Diastole) [1]: 0.643 ± 0.026 mm
- LVPWS (Left Ventricle Posterior Wall Thickness Systole) [1]: 0.818 ± 0.032 mm
- cardiac function by echocardiography ([2]; adult MI, malonate for 4 weeks starting 1-week post-MI, 4-weeks and 6-weeks post-MI): significant increase in cardiac function
- % EF (Ejection Fraction) [2, 4]: 34.537 ± 4.592%
- % FS (Fractional Shortening) [2, 4]: 16.507 ± 2.337%
- LV Mass (Left Ventricular Mass, Anatomical Weight) [2, 4]: 118.559 ± 20.724 mg
- LV Vol; d (Left Ventricular Volume; diastole) [2, 4]: 97.776 ± 23.854 µL
- LV Vol; s (Left Ventricular Volume; systole) [2, 4]: 69.099 ± 20.899 µL
- LVAWD (Left Ventricle Anterior Wall Thickness Diastole) [2, 4]: 0.698 ± 0.021 mm
- LVAWS (Left Ventricle Anterior Wall Thickness Systole) [2, 4]: 0.833 ± 0.016 mm
- LVIDD (Left Ventricle Internal Diameter Diastole) [2, 4]: 4.458 ± 0.467 mm
- LVIDS (Left Ventricle Internal Diameter Systole) [2, 4]: 3.772 ± 0.497 mm
- LVPWD (Left Ventricle Posterior Wall Thickness Diastole) [2, 4]: 0.671 ± 0.023 mm
- LVPWS (Left Ventricle Posterior Wall Thickness Systole) [2, 4]: 0.814 ± 0.012 mm
- % EF (Ejection Fraction) [2, 5]: 38.518 ± 3.865%
- % FS (Fractional Shortening) [2, 5]: 18.642 ± 2.058%
- LV Mass (Left Ventricular Mass, Anatomical Weight) [2, 5]: 90.090 ± 11.827 mg
- LV Vol; d (Left Ventricular Volume; diastole) [2, 5]: 78.984 ± 13.627 µL
- LV Vol; s (Left Ventricular Volume; systole) [2, 5]: 50.781 ± 11.724 µL
- LVAWD (Left Ventricle Anterior Wall Thickness Diastole) [2, 5]: 0.623 ± 0.024 mm
- LVAWS (Left Ventricle Anterior Wall Thickness Systole) [2, 5]: 0.791 ± 0.028 mm
- LVIDD (Left Ventricle Internal Diameter Diastole) [2, 5]: 4.139 ± 0.296 mm
- LVIDS (Left Ventricle Internal Diameter Systole) [2, 5]: 3.393 ± 0.326 mm
- LVPWD (Left Ventricle Posterior Wall Thickness Diastole) [2, 5]: 0.613 ± 0.017 mm
- LVPWS (Left Ventricle Posterior Wall Thickness Systole) [2, 5]: 0.764 ± 0.018 mm
- % EF (Ejection Fraction) [2, 6]: 45.375 ± 5.597%
- % FS (Fractional Shortening) [2, 6]: 24.529 ± 3.624%
- LV Mass (Left Ventricular Mass, Anatomical Weight) [2, 6]: 90.726 ± 13.717 mg
- LV Vol; d (Left Ventricular Volume; diastole) [2, 6]: 70.697 ± 15.089 µL
- LV Vol; s (Left Ventricular Volume; systole) [2, 6]: 47.342 ± 10.954 µL
- LVAWD (Left Ventricle Anterior Wall Thickness Diastole) [2, 6]: 0.687 ± 0.039 mm
- LVAWS (Left Ventricle Anterior Wall Thickness Systole) [2, 6]: 0.809 ± 0.051 mm
- LVIDD (Left Ventricle Internal Diameter Diastole) [2, 6]: 4.136 ± 0.349 mm
- LVIDS (Left Ventricle Internal Diameter Systole) [2, 6]: 2.958 ± 0.419 mm
- LVPWD (Left Ventricle Posterior Wall Thickness Diastole) [2, 6]: 0.962 ± 0.287 mm
- LVPWS (Left Ventricle Posterior Wall Thickness Systole) [2, 6]: 1.015 ± 0.214 mm
- % EF (Ejection Fraction) [2, 7]: 47.208 ± 4.087%
- % FS (Fractional Shortening) [2, 7]: 23.535 ± 2.509%
- LV Mass (Left Ventricular Mass, Anatomical Weight) [2, 7]: 107.845 ± 11.076 mg
- LV Vol; d (Left Ventricular Volume; diastole) [2, 7]: 75.865 ± 9.652 µL
- LV Vol; s (Left Ventricular Volume; systole) [2, 7]: 40.253 ± 6.696 µL
- LVAWD (Left Ventricle Anterior Wall Thickness Diastole) [2, 7]: 0.718 ± 0.011 mm
- LVAWS (Left Ventricle Anterior Wall Thickness Systole) [2, 7]: 0.831 ± 0.019 mm
- LVIDD (Left Ventricle Internal Diameter Diastole) [2, 7]: 4.113 ± 0.228 mm
- LVIDS (Left Ventricle Internal Diameter Systole) [2, 7]: 3.146 ± 0.214 mm
- LVPWD (Left Ventricle Posterior Wall Thickness Diastole) [2, 7]: 0.738 ± 0.018 mm
- LVPWS (Left Ventricle Posterior Wall Thickness Systole) [2, 7]: 0.846 ± 0.017 mm
- % EF (Ejection Fraction) [2, 8]: 35.760 ± 3.523%
- % FS (Fractional Shortening) [2, 8]: 17.077 ± 1.873%
- LV Mass (Left Ventricular Mass, Anatomical Weight) [2, 8]: 105.118 ± 13.726 mg
- LV Vol; d (Left Ventricular Volume; diastole) [2, 8]: 87.566 ± 16.492 µL
- LV Vol; s (Left Ventricular Volume; systole) [2, 8]: 57.371 ± 11.845 µL
- LVAWD (Left Ventricle Anterior Wall Thickness Diastole) [2, 8]: 0.651 ± 0.018 mm
- LVAWS (Left Ventricle Anterior Wall Thickness Systole) [2, 8]: 0.788 ± 0.016 mm
- LVIDD (Left Ventricle Internal Diameter Diastole) [2, 8]: 4.329 ± 0.343 mm
- LVIDS (Left Ventricle Internal Diameter Systole) [2, 8]: 3.603 ± 0.326 mm
- LVPWD (Left Ventricle Posterior Wall Thickness Diastole) [2, 8]: 0.665 ± 0.033 mm
- LVPWS (Left Ventricle Posterior Wall Thickness Systole) [2, 8]: 0.838 ± 0.025 mm
- % EF (Ejection Fraction) [2, 9]: 69.832 ± 3.238%
- % FS (Fractional Shortening) [2, 9]: 38.447 ± 2.452%
- LV Mass (Left Ventricular Mass, Anatomical Weight) [2, 9]: 59.124 ± 6.101 mg
- LV Vol; d (Left Ventricular Volume; diastole) [2, 9]: 32.452 ± 4.967 µL
- LV Vol; s (Left Ventricular Volume; systole) [2, 9]: 10.208 ± 2.260 µL
- LVAWD (Left Ventricle Anterior Wall Thickness Diastole) [2, 9]: 0.704 ± 0.023 mm
- LVAWS (Left Ventricle Anterior Wall Thickness Systole) [2, 9]: 0.838 ± 0.024 mm
- LVIDD (Left Ventricle Internal Diameter Diastole) [2, 9]: 2.872 ± 0.174 mm
- LVIDS (Left Ventricle Internal Diameter Systole) [2, 9]: 1.779 ± 0.158 mm
- LVPWD (Left Ventricle Posterior Wall Thickness Diastole) [2, 9]: 0.717 ± 0.020 mm
- LVPWS (Left Ventricle Posterior Wall Thickness Systole) [2, 9]: 0.829 ± 0.017 mm
- scar size (fibrosis quantification) [3]: significant reduction in scar size
- cardiomyocyte cell size (wheat germ agglutinin staining) (cardiomyocytes): significant reduction in cardiomyocyte cell size
- structural regeneration and fibrosis (trichrome staining) (cardiomyocytes; vs saline controls): complete heart regeneration
